Data taken from patent US11793849B2, “Method of Chinese herbal medicine extract used for treating multiple diseases caused by drug resistant bacteria infection” (priority 2016, dated 2023).

Tested on: MDRPA
Assay: Checkerboard assay (combined-use MIC, FIC)
Type: cell-based, Pseudomonas aeruginosa
Settings: for FIC, all strains / MIC50 of the antibiotic after combined use / MIC90 of the antibiotic after combined use / reduction of the antibiotic's MIC50 vs single use / reduction of the antibiotic's MIC90 vs single use / share of strains with FIC ≤ 0.5: 20 MDRPAs
Protocol: Test methods of the sensibilization effects of the test product to similar antibiotics: it is operated by referring to a checkerboard assay recommended by NCCLS.
The checkerboard assay is performed in a 96-pore sterile culture plate.
Calculation of a Fractional Inhibitory Concentration (FIC): FIC=S20b combined-use MIC/S20b single-use MIC+antibiotic combined-use MIC/antibiotic single-use MIC. By calculating the FIC, the combined antibacterial interaction between the EA and the antibiotic is evaluated, with synergistic effect for FIC≤0.5, additive effect for 0.5<FIC≤1, indifferent effect for 1<FIC≤2 and antagonistic effect for FIC>2. According to a sterile growth pore, the optimum concentration ratio between the EA and the antibiotic is founded out. At last, the effect of the EA to strengthen the efficacy of the antibiotic is evaluated.

[1] = antibiotic with 10% ethanol extract
[2] = antibiotic with 60% ethanol extract
[3] = antibiotic with 95% ethanol extract
[4] = antibiotic with EA (water extract)

CC(C)(O/N=C(\C(=O)N[C@@H]1C(=O)N2C(C(=O)[O-])=C(C[n+]3ccccc3)CS[C@H]12)c1csc(N)n1)C(=O)O [CAZ, Ceftazidime]
FIC, all strains [1]: ≤ 2 | MIC50 of the antibiotic after combined use [1]: 16 µg/mL | MIC90 of the antibiotic after combined use [1]: 64 µg/mL | reduction of the antibiotic's MIC50 vs single use [1]: 50% | reduction of the antibiotic's MIC90 vs single use [1]: 75% | share of strains with FIC ≤ 0.5 [1]: 35% | FIC, all strains [2]: ≤ 2 | MIC50 of the antibiotic after combined use [2]: 8 µg/mL | MIC90 of the antibiotic after combined use [2]: 64 µg/mL | reduction of the antibiotic's MIC50 vs single use [2]: 75% | reduction of the antibiotic's MIC90 vs single use [2]: 75% | share of strains with FIC ≤ 0.5 [2]: 40% | FIC, all strains [3]: ≤ 2 | MIC50 of the antibiotic after combined use [3]: 16 µg/mL | MIC90 of the antibiotic after combined use [3]: 128 µg/mL | reduction of the antibiotic's MIC50 vs single use [3]: 50% | reduction of the antibiotic's MIC90 vs single use [3]: 50% | share of strains with FIC ≤ 0.5 [3]: 25% | FIC, all strains [4]: ≤ 2 | MIC50 of the antibiotic after combined use [4]: 8 µg/mL | MIC90 of the antibiotic after combined use [4]: 64 µg/mL | reduction of the antibiotic's MIC50 vs single use [4]: 75% | reduction of the antibiotic's MIC90 vs single use [4]: 75% | share of strains with FIC ≤ 0.5 [4]: 45% | combined-use MIC (strain P1, EA (P. clypearia 10% ethanol extract) combined with CAZ): 16 µg/mL | combined-use MIC (strain P1, EA (P. clypearia water extract) combined with CAZ): 8 µg/mL | combined-use MIC (strain P2, EA (P. clypearia 10% ethanol extract) combined with CAZ): 16 µg/mL | combined-use MIC (strain P2, EA (P. clypearia water extract) combined with CAZ): 16 µg/mL | combined-use MIC (strain P3, EA (P. clypearia 10% ethanol extract) combined with CAZ): 2 µg/mL | combined-use MIC (strain P3, EA (P. clypearia water extract) combined with CAZ): 2 µg/mL | combined-use MIC (strain P4, EA (P. clypearia 10% ethanol extract) combined with CAZ): 64 µg/mL | combined-use MIC (strain P4, EA (P. clypearia water extract) combined with CAZ): 64 µg/mL | combined-use MIC (strain P5, EA (P. clypearia 10% ethanol extract) combined with CAZ): 32 µg/mL | combined-use MIC (strain P5, EA (P. clypearia water extract) combined with CAZ): 32 µg/mL | combined-use MIC (strain P6, EA (P. clypearia 10% ethanol extract) combined with CAZ): 256 µg/mL | combined-use MIC (strain P6, EA (P. clypearia water extract) combined with CAZ): 256 µg/mL | combined-use MIC (strain P7, EA (P. clypearia 10% ethanol extract) combined with CAZ): 32 µg/mL | combined-use MIC (strain P7, EA (P. clypearia water extract) combined with CAZ): 32 µg/mL | combined-use MIC (strain P8, EA (P. clypearia 10% ethanol extract) combined with CAZ): 64 µg/mL | combined-use MIC (strain P8, EA (P. clypearia water extract) combined with CAZ): 64 µg/mL | combined-use MIC (strain P9, EA (P. clypearia 10% ethanol extract) combined with CAZ): 4 µg/mL | combined-use MIC (strain P9, EA (P. clypearia water extract) combined with CAZ): 4 µg/mL | combined-use MIC (strain P10, EA (P. clypearia 10% ethanol extract) combined with CAZ): 2 µg/mL | combined-use MIC (strain P10, EA (P. clypearia water extract) combined with CAZ): 2 µg/mL | combined-use MIC (strain P11, EA (P. clypearia 10% ethanol extract) combined with CAZ): 1 µg/mL | combined-use MIC (strain P11, EA (P. clypearia water extract) combined with CAZ): 1 µg/mL | combined-use MIC (strain P12, EA (P. clypearia 10% ethanol extract) combined with CAZ): 2 µg/mL | combined-use MIC (strain P12, EA (P. clypearia water extract) combined with CAZ): 2 µg/mL | combined-use MIC (strain P13, EA (P. clypearia 10% ethanol extract) combined with CAZ): 4 µg/mL | combined-use MIC (strain P13, EA (P. clypearia water extract) combined with CAZ): 4 µg/mL | combined-use MIC (strain P14, EA (P. clypearia 10% ethanol extract) combined with CAZ): 8 µg/mL | combined-use MIC (strain P14, EA (P. clypearia water extract) combined with CAZ): 8 µg/mL | combined-use MIC (strain P15, EA (P. clypearia 10% ethanol extract) combined with CAZ): 128 µg/mL | combined-use MIC (strain P15, EA (P. clypearia water extract) combined with CAZ): 128 µg/mL | combined-use MIC (strain P16, EA (P. clypearia 10% ethanol extract) combined with CAZ): 8 µg/mL | combined-use MIC (strain P16, EA (P. clypearia water extract) combined with CAZ): 8 µg/mL | combined-use MIC (strain P17, EA (P. clypearia 10% ethanol extract) combined with CAZ): 8 µg/mL | combined-use MIC (strain P17, EA (P. clypearia water extract) combined with CAZ): 8 µg/mL | combined-use MIC (strain P18, EA (P. clypearia 10% ethanol extract) combined with CAZ): 32 µg/mL | combined-use MIC (strain P18, EA (P. clypearia water extract) combined with CAZ): 16 µg/mL | combined-use MIC (strain P19, EA (P. clypearia 10% ethanol extract) combined with CAZ): 2 µg/mL | combined-use MIC (strain P19, EA (P. clypearia water extract) combined with CAZ): 2 µg/mL | combined-use MIC (strain P20, EA (P. clypearia 10% ethanol extract) combined with CAZ): 64 µg/mL | combined-use MIC (strain P20, EA (P. clypearia water extract) combined with CAZ): 64 µg/mL
